Experimental data reported in US4677131.

Test: shake-flask (equal volumes, stirred); both phases assayed by HPLC
Conditions: 32 °C

In order of rising “partition coefficient iso-octane / distilled water” value:
1. CCCCCCCN1CCN(C)C1=O  24 concentration ratio
2. CCCCCCCCCCN1CCN(C)C1=O  756 concentration ratio
3. CCCCCCCCCCCCN1CCCCCC1=O  2004 concentration ratio
4. CCCCCCCCCCCCN1CCN(C)C1=O  7350 concentration ratio
